We go through six compounds from patent US9050346B2, “Bromodomain inhibitors” (AbbVie Inc., priority 2013, dated 2015).

Marks after values point to notes of the source that are not given here.

Data set [1] deals with breast cancer cell line MX-1. As to the kind of experiment: MX-1 cell line proliferation assay (3-day, Cell Titer Glo). In kind it is cell-based. Conditions: Homo sapiens, MX1, MX-1 cells, 72 h, top concentration 3 μM, read-out: Cellular proliferation: EC50. In outline:
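MX-1 cells, 5000/well in RPMI 1640 with 10% FBS, adhered overnight, then treated 3 days with compound at final 3 to 0.0001 μM (3-fold steps). Cell Titer Glo luminescence normalized to DMSO-treated cells; EC50 from sigmoidal fit.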
For orientation: ATP-based viability assays read luminescence as a measure of living cells.

For data set [2], the system named is OPM-2 human multiple myeloma xenograft tumors. The data set can be described thus: OPM-2 xenograft tumor growth inhibition assay. In kind it is in vivo, mice. Conditions: QDx21; for % TGI: SCID-beige mice; for % TGD (tumor growth delay): endpoint 1000 mm^3. The method, then: The effect of compounds of the examples to inhibit the growth of OPM-2 xenograft tumors implanted in mice was evaluated. A suspension of cancer cells (5×10^6 per 0.1 mL) prepared in RPMI culture medium (Invitrogen, Carlsbad, Calif.) was diluted 1:1 with a solution of Matrigel™ (BD Biosciences, Franklin Lakes, N.J.) and inoculated subcutaneously into the right hind flank of female SCID-beige (Charles River Labs) mice. Randomization into treatment and vehicle control groups (10/group) occurred when the mean tumor volume reached approximately 250 mm^3. Compounds were formulated in 2.5% DMSO, 10% EtOH, 27.5% PEG 400, 60% Phosol 53 MCT. Administration of compound or vehicle was initiated on the day following randomization and continued for 21 days. Tumors were measured twice a week throughout the treatment period using a pair of calipers and tumor volumes were calculated according to the formula V=L×W^2/2 (V: volume, mm^3; L: length, mm. W: width, mm) Tumor growth inhibition was calculated based on the mean tumor volume measured on the first day that the mean volume of the vehicle group exceeded 2000 mm^3 according to the formula % TGI=100-mean tumor volume of treatment group/mean tumor volume of control group x 100.

Another data set has as its target T1, BRD4 (BDI_K57-E168) (Homo sapiens, UniProt O60885).
T1 construct: BD1: amino acids K57-E168; made in house
The data set can be described thus: TR-FRET bromodomain binding assay, BRD4 first bromodomain. Conditions: His-tagged BD1, 100 nM Alexa647 probe; Ki calculated from IC50; dilution protocol A-G. In short, it runs like this: (§1)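 His-tagged BRD4 BD1 (K57-E168) or BD2 (8 nM) with Eu-anti-His antibody and Alexa647-labeled BET-inhibitor probe (100 nM for BDI, 30 nM for BDII), pH 6.0 phosphate buffer, 2% DMSO, 1 h at room temperature. TR-FRET (Ex 340, Em 495/520); IC50 by 4-parameter fit, converted to Ki using probe Kd and concentration.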

The next data set addresses T2, BRD4 (BDII_E352-M457) (Homo sapiens, UniProt O60885).
T2 construct: made in house
The data set can be described thus: TR-FRET bromodomain binding assay, BRD4 second bromodomain. In short, it runs like this:
as §1

In data set [3] the test system is LPS induced IL-6 production. The data set can be described thus: LPS (lipopolysaccharide) induced IL-6 production mouse assay. The format is in vivo. Conditions: 3 mg/kg oral, 1 h before LPS 2.5 mg/kg i.p.; serum IL-6 2 h after LPS; SCID female mice; all p<0.05. The method, then:
Compounds of the Examples listed in Table 2 were assayed for their ability to inhibit LPS (lipopolysaccharide) induced IL-6 (Interleukin-6) production in mice. Fox Chase SCID® female mice (Charles Rivers Labs, 5 per group) received an intraperitoneal challenge of lipopolysaccharide (2.5 mg/kg, L2630 E. coli 0111:B4) one hour after oral administration of compounds. Mice were euthanized 2 hours after lipopolysaccharide injection, blood was removed by cardiac puncture, and then the serum harvested from the blood samples was frozen at −80° C. On the day of the assay the serum samples were brought to room temperature and then diluted 1:20 in phosphate-buffered saline containing 2% bovine serum albumin. Interleukin-6 measurements were performed using a cytokine assay from Meso Scale Discovery (Gaithersburg, Md.) for mouse serum analysis according to the manufacturer's protocol and read on a SECTOR Imager 6000 (Meso Scale Discovery, Gaithersburg, Md.) instrument. Statistical analysis was performed using Prism software (version 5.0) incorporating Dunnett's one way ANOVA. The IL-6 mean and standard deviation of the group of vehicle treated animals were compared with the IL-6 mean and standard deviation of the group treated with drug. A p value<0.05 means that there is less than a 5% probability that the mean values in the two groups are equal.
Xenograft Tumor Growth Inhibition Assay

Consider `Cc1[nH]c(-c2cc(S(C)(=O)=O)ccc2Oc2ccc(F)cc2F)c2c1C(=O)NCC2` [Example 98, 1-[2-(2,4-difluorophenoxy)-5-(methylsulfonyl)phenyl]-3-methyl-2,5,6,7-tetrahydro-4H-pyrrolo[3,4-c]pyridin-4-one], for which the EC50 in data set [1] came to 721 nM. Further, in data set [2] (45 mg/kg PO), the “% removed from study (morbidity or weight loss in excess of 20%)” value was found to be 0%, the “% TGI” value is on record as 45** % and the “% TGD (tumor growth delay)” value is 53** %. Moreover, in data set [2] (150 mg/kg PO), the “% removed from study (morbidity or weight loss in excess of 20%)” value was found to be 20%, the “% TGI” value was 68*** % and the “% TGD (tumor growth delay)” value is recorded as 123** %. Also, the Ki on BRD4 (BDI_K57-E168) is 34.9 nM. On BRD4 (BDII_E352-M457), this compound registered a Ki of 148 nM.
Turning to `Cc1[nH]c(-c2cc(N)ccc2Oc2ccccc2)c2c1C(=O)NCC2` [Example 94, 1-(5-amino-2-phenoxyphenyl)-3-methyl-2,5,6,7-tetrahydro-4H-pyrrolo[3,4-c]pyridin-4-one], the EC50 in data set [1] amounted to 91.9 nM. In data set [3], the “% inhibition of LPS induced IL-6 production at 3 mg/kg” value (“% inhibition” for short) was 27%. Besides, the figures for the inhibition constant Ki on BRD4 (BDI_K57-E168) and at BRD4 (BDII_E352-M457) were 17.2 nM and 32.4 nM, respectively.
As for `CCCNC(=O)c1cc2c(-c3cc(N)ccc3Oc3ccc(F)cc3F)[nH]c(C)c2c(=O)[nH]1` [Example 43, 1-[5-amino-2-(2,4-difluorophenoxy)phenyl]-3-methyl-4-oxo-N-propyl-4,5-dihydro-2H-pyrrolo[3,4-c]pyridine-6-carboxamide], in data set [1], the EC50 came out at 150 nM. Besides, the “% inhibition” value in data set [3] is 39%. Also, the Ki on BRD4 (BDI_K57-E168) is 15.9 nM; at BRD4 (BDII_E352-M457) it was 25.4 nM.
For `Cc1[nH]c(-c2cc(C#N)ccc2Oc2ccc(F)cc2F)c2cn[nH]c(=O)c12` [Example 82, 4-(2,4-difluorophenoxy)-3-(7-methyl-1-oxo-2,6-dihydro-1H-pyrrolo[3,4-d]pyridazin-5-yl)benzonitrile], in that order: 167 nM, 44%, 36.7 nM and 357 nM.
Take `COCCNC(=O)c1cc2c(-c3ccccc3Oc3ccccc3)[nH]c(C)c2c(=O)[nH]1` [Example 29, N-(2-methoxyethyl)-3-methyl-4-oxo-1-(2-phenoxyphenyl)-4,5-dihydro-2H-pyrrolo[3,4-c]pyridine-6-carboxamide]: the EC50 in data set [1] was 114 nM. Moreover, the “% inhibition” value in data set [3] is recorded as 40%. Further, the figures for the Ki at BRD4 (BDI_K57-E168) and on BRD4 (BDII_E352-M457) were 10.6 nM and 46.7 nM, respectively.
For `COC(=O)c1cc2c(-c3cc(N)ccc3Oc3ccccc3)[nH]c(C)c2c(=O)[nH]1` [Example 2, methyl 1-(5-amino-2-phenoxyphenyl)-3-methyl-4-oxo-4,5-dihydro-2H-pyrrolo[3,4-c]pyridine-6-carboxylate], in that order: 24 nM, 25%, 1.47 nM and 21.5 nM.

By Ki is commonly meant the dissociation constant of the complex between target and ligand, obtained from inhibition or displacement.
